Source: patent publication US9790188B2, “Benzimidazole derivatives and uses thereof” (Whitehead Institute for Biomedical Research, priority 2013, dated 2017)
“Also recorded” adds a separate entry of the source.

Tests used:
[1] = test system: WT yeast; test: Viable cells recovered after prolonged treatment at growth inhibitory concentrations
[2] = test system: α-syn foci; test: α-syn-GFP localization / foci microscopy in yeast; assay type: cell-based; conditions: α-syn-expressing yeast
Procedure: Logarithmic growing raffinose cultures were induced with galactose for five hours in the presence or absence of the indication concentration of ABI. Cells were centrifuged, media discarded, and then fixed with 4% paraformaldehyde in 1×PBS for 1 hr. The fixed culture was centrifuged, and the pellet resuspended in 0.4% paraformaldehyde in 1×PBS and kept at 4° C. Single plain images were taken at 100× magnification with a Nikon Eclipse Ti microscope.

[3] = test system: TDP-43; test: Yeast growth rescue screen, cells expressing TDP-43; assay type: cell-based; conditions: yeast expressing TDP-43
Excerpt: Thus, rescue was not targeted to a common feature of misfolded protein toxicity, but rather reflected the ability of ABI to target specific pathologies related to α-syn (and to a lesser degree TDP-43).
Yeast strains expressing toxic proteins have been described previously (6, 9, 33, 34) (Table 1). All strains have either single or multiple inserts for galactose-inducible expression. In addition, all stains have either deletions of the Δpdr1::KanMX and Δpdr3::KanMX or Δpdr5::KanMX to reduce efflux of compounds and required compound dosing. Yeast were cultured in complete synthetic media (CSM) and an appropriate dropout (minus HIS or URA) to maintain plasmids if required. For galactose-induction experiments, overnight cultures were grown in CSM/2% glucose to saturation and diluted 1:20 into CSM/2% raffinose for ˜2 generations. Cultures were then diluted into CSM/2% galactose at an optimum OD600 for the experiment (see ‘Growth assays’).
Starting cultures for all dose-response assays were established as described above. All growth assays were carried out in 384 well-format. Source plates were assembled in 96 well plates using multichannel pipettes to dilute rows in 1.6-fold serial dilutions of CSMGal. […] Plates were then read with a Tecan Saphire plate reader at OD600. […]

[4] = test system: TH-positive (dopaminergic) neurons; test: Primary ventral mesencephalic cultures transduced with A53T α-syn; assay type: cell-based, rat; conditions: A53T α-syn adenovirus, 0.1 μM
Procedure: Experiments aimed at monitoring dopaminergic cell viability in primary mesencephalic cultures were performed as described previously (7-9). Briefly, cells obtained from the midbrains of E17 rat embryos were plated at a density of 2.18×10^3 cells per mm^2 on a 48-well plate. Four days after plating, the cells were treated with cytosine arabinofuranoside (20 μM) to restrict the growth of glial cells. Three days later (7 days in vitro), the cells were transduced with an adenovirus encoding A53T α-syn, generated using the Invitrogen ViraPower Adenoviral Expression System (38), at a multiplicity of infection (MOI) of 15 in the absence or presence of ABI1 (0.1 μM). After a 72-h transduction period, the media was replaced with fresh media with or without ABI1 for an additional 24 h. […] MAP2- and TH-immunoreactive neurons were counted by an investigator blinded to the identity of the treatment conditions in at least ten randomly chosen observation fields (encompassing ˜800-1600 MAP2^+ neurons) per treatment using a Nikon TE2000-U inverted fluorescence microscope with a 20× objective. Relative dopaminergic cell viability was calculated as the percentage of MAP2-positive neurons that were also TH-positive and normalized by the value determined for control cells (set to 100%). […]

**Q.** For `Cc1cccc(-n2cnc3cc(C(=O)NCc4ccccc4Cl)ccc32)c1` [ABI, N-(2-chlorobenzyl)-1-(m-tolyl)-1H-benzo[d]imidazole-5-carboxamide], which viability of cells [1] is on record?
**A.** Its viability of cells is “retained full viability”.

**Q.** What about the “accumulation of cytoplasmic α-syn foci / inclusions” value [2] of the same compound?
**A.** The value was “prevented the accumulation of cytoplasmic α-syn foci”.

**Q.** And the “efficacy against TDP-43 (restoration of growth)” value [3]?
**A.** Its value is “modest efficacy”.

**Q.** What about the “retraction of neuronal processes / neurite length” value [4] of the same compound?
**A.** Its value is “markedly reduced the retraction of neuronal processes; also recorded: reversed”.

**Q.** What about the “survival of TH-positive neurons (% of MAP2-positive neurons)” value [4] of the same compound?
**A.** The value was “largely restored the survival; also recorded: reversed”.
